Source: US20120149660A1, “NOVEL N-SUBSTITUTED 5-HYDROXYPYROLLINDES AS INHIBITORS OF MDM2-P53 INTERACTIONS” (priority 2010, published 2012)
Where a name gives a salt, the structure may show the parent alone.

Target: interaction between p53 and MDM2 proteins (recombinant GST-tagged MDM2 / biotinylated p53 peptide) (Homo sapiens, UniProt Q00987)
Experiment: HTRF (homogeneous time-resolved fluorescence) assay of p53-MDM2 interaction inhibition
Type: binding
Details: bsa: 0.02%
Protocol: The ability of the compounds to inhibit the interaction between p53 and MDM2 proteins was measured by an HTRF (homogeneous time-resolved fluorescence) assay in which recombinant GST-tagged MDM2 binds to a peptide that resembles the MDM2-interacting region of p53. Binding of GST-MDM2 protein and p53-peptide (biotinylated on its N-terminal end) is registered by the FRET (fluorescence resonance energy transfer) between Europium (Eu)-labeled anti-GST antibody and streptavidin-conjugated Allophycocyanin (APC).
[…] Add 10 uL diluted compounds (1:5 dilution in reaction buffer) to each well, mix by shaking Add 20 uL biotinylated p53 peptide (180 nM working solution) in reaction buffer to each well and mix on shaker. Incubate at 37° C. for 1 h. Add 20 uL streptavidin-APC and Eu-anti-GST antibody mixture (6 nM Eu-anti-GST and 60 nM streptavidin-APC working solution) in TBS buffer with 0.2% BSA, shake at room temperature for 30 minutes and read using a TRF-capable plate reader at 665 and 615 nm (Victor 5; Perkin Elmer Wallac). If not specified, the reagents were purchased from Sigma Chemical Co.

interaction between p53 and MDM2 proteins (recombinant GST-tagged MDM2 / biotinylated p53 peptide), sequence (Q00987 whole entry): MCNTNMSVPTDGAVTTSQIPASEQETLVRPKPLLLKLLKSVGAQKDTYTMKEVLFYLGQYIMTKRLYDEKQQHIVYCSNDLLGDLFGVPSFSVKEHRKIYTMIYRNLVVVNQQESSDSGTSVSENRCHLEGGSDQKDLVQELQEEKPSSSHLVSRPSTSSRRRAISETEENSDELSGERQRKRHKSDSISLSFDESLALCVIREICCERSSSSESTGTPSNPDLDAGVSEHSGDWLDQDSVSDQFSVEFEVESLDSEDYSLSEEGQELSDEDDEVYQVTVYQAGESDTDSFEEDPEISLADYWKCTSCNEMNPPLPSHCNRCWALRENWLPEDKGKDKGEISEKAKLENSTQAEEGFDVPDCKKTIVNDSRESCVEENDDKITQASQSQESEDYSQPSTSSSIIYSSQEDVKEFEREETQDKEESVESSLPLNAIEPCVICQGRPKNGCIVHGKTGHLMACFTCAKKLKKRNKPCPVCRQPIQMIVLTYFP

Row | Compound | IC50 [nM]
1 | CC(C)(C)C[C@@H]1N(CCCc2ccc(C(N)=O)cc2)[C@@H](CO)[C@H](c2cccc(Cl)c2F)[C@@]1(C#N)c1ccc(Cl)cc1F [Example 12, 4-{3-[(2S,3R,4S,5R)-4-(3-chloro-2-fluoro-phenyl)-3-(4-chloro-2-fluoro-phenyl)-3-cyano-2-(2,2-dimethyl-propyl)-5-hydroxymethyl-pyrrolidin-1-yl]-propyl}-benzamide trifluoroacetate salt] | 1520
2 | CC(C)(C)C[C@@H]1N[C@@H](CO)[C@H](c2cccc(Cl)c2F)[C@@]1(C#N)c1ccc(Cl)cc1F (racemic) [Example 3, rac(2S,3R,4S,5R)-4-(3-chloro-2-fluoro-phenyl)-3-(4-chloro-2-fluoro-phenyl)-2-(2,2-dimethyl-propyl)-5-hydroxymethyl-pyrrolidine-3-carbonitrile] | 971
3 | CC(C)(C)C[C@@H]1N(CC#C[Si](C)(C)C)[C@@H](CO)[C@H](c2cccc(Cl)c2F)[C@@]1(C#N)c1ccc(Cl)cc1F [Example 11, (2S,3R,4S,5R)-4-(3-Chloro-2-fluoro-phenyl)-3-(4-chloro-2-fluoro-phenyl)-2-(2,2-dimethyl-propyl)-5-hydroxymethyl-1-(3-trimethylsilanyl-prop-2-ynyl)-pyrrolidine-3-carbonitrile] | 1080
4 | CC(C)(C)C[C@@H]1N(CC[C@@H](O)[C@H](O)[C@H](O)CO)[C@@H](CO)[C@H](c2cccc(Cl)c2F)[C@@]1(C#N)c1ccc(Cl)cc1F (racemic) [Example 4, rac(2S,3R,4S,5R)-4-(3-chloro-2-fluoro-phenyl)-3-(4-chloro-2-fluoro-phenyl)-2-(2,2-dimethyl-propyl)-5-hydroxymethyl-1-((3R,4S,5R)-3,4,5,6-tetrahydroxy-hexyl)-pyrrolidine-3-carbonitrile] | 164
5 | CC(C)(C)C[C@@H]1N(CCCc2ccc(C(=O)O)cc2)[C@@H](CO)[C@H](c2cccc(Cl)c2F)[C@@]1(C#N)c1ccc(Cl)cc1F [Example 5, 4-{3-[(2S,3R,4S,5R)-4-(3-chloro-2-fluoro-phenyl)-3-(4-chloro-2-fluoro-phenyl)-3-cyano-2-(2,2-dimethyl-propyl)-5-hydroxymethyl-pyrrolidin-1-yl]-propyl}-benzoic acid] | 212
6 | CCOC(=O)c1ccc(CCCN2[C@@H](CC(C)(C)C)[C@](C#N)(c3ccc(Cl)cc3F)[C@@H](c3cccc(Cl)c3F)[C@@H]2CO)cc1 [Example 6, 4-{3-[(2S,3R,4S,5R)-4-(3-chloro-2-fluoro-phenyl)-3-(4-chloro-2-fluoro-phenyl)-3-cyano-2-(2,2-dimethyl-propyl)-5-hydroxymethyl-pyrrolidin-1-yl]-propyl}-benzoic acid ethyl ester] | 4130
7 | CC(C)(C)C[C@@H]1N(CC[C@@H](O)[C@H](O)[C@H](O)CO)[C@@H](CO)[C@H](c2cccc(Cl)c2)[C@@]1(C#N)c1ccc(Cl)cc1 (racemic) [Example 2, rac(2S,3R,4R,5R)-4-(3-chloro-phenyl)-3-(4-chloro-phenyl)-2-(2,2-dimethyl-propyl)-5-hydroxymethyl-1-((3R,4S,5R)-3,4,5,6-tetrahydroxy-hexyl)-pyrrolidine-3-carbonitrile] | 740
8 | CC(C)(C)C[C@@H]1N(CC#Cc2ccc(C(=O)O)c(F)c2)[C@@H](CO)[C@H](c2cccc(Cl)c2F)[C@@]1(C#N)c1ccc(Cl)cc1F [Example 18, 4-{3-[(2S,3R,4S,5R)-4-(3-chloro-2-fluoro-phenyl)-3-(4-chloro-2-fluoro-phenyl)-3-cyano-2-(2,2-dimethyl-propyl)-5-hydroxymethyl-pyrrolidin-1-yl]-prop-1-ynyl}-2-fluoro-benzoic acid] | 70.8
9 | CC(C)(C)C[C@@H]1N(Cc2ccc(OCCO)cc2)[C@@H](CO)[C@H](c2cccc(Cl)c2F)[C@@]1(C#N)c1ccc(Cl)cc1F [Example 9, (2S,3R,4S,5R)-4-(3-chloro-2-fluoro-phenyl)-3-(4-chloro-2-fluoro-phenyl)-2-(2,2-dimethyl-propyl)-1-[4-(2-hydroxy-ethoxy)-benzyl]-5-hydroxymethyl-pyrrolidine-3-carbonitrile] | 2110

The remaining compounds from weak to strong by IC50, led by results:

Row | IC50 [nM] | Compound
10 | 2860 | CC(C)(C)C[C@@H]1N[C@@H](CO)[C@H](c2cccc(Cl)c2)[C@@]1(C#N)c1ccc(Cl)cc1 (racemic) [Example 1, rac(2S,3R,4R,5R)-4-(3-chloro-phenyl)-3-(4-chloro-phenyl)-2-(2,2-dimethyl-propyl)-5-hydroxymethyl-pyrrolidine-3-carbonitrile]
11 | 2360 | C#CCN1[C@@H](CC(C)(C)C)[C@](C#N)(c2ccc(Cl)cc2F)[C@@H](c2cccc(Cl)c2F)[C@@H]1CO [Example 14, (2S,3R,4S,5R)-4-(3-chloro-2-fluoro-phenyl)-3-(4-chloro-2-fluoro-phenyl)-2-(2,2-dimethyl-propyl)-5-hydroxymethyl-1-prop-2-ynyl-pyrrolidine-3-carbonitrile]
12 | 2320 | CCOC(=O)C1CC1CN1[C@@H](CC(C)(C)C)[C@](C#N)(c2ccc(Cl)cc2F)[C@@H](c2cccc(Cl)c2F)[C@@H]1CO (stereo partly drawn) [Example 8, 2-[(2S,3R,4S,5R)-4-(3-chloro-2-fluoro-phenyl)-3-(4-chloro-2-fluoro-phenyl)-3-cyano-2-(2,2-dimethyl-propyl)-5-hydroxymethyl-pyrrolidin-1-ylmethyl]-cyclopropanecarboxylic acid ethyl ester]
13 | 1670 | Cc1ccc(CCCN2[C@@H](CC(C)(C)C)[C@](C#N)(c3ccc(Cl)cc3F)[C@@H](c3cccc(Cl)c3F)[C@@H]2CO)o1 [Example 13, (2S,3R,4S,5R)-4-(3-chloro-2-fluoro-phenyl)-3-(4-chloro-2-fluoro-phenyl)-2-(2,2-dimethyl-propyl)-5-hydroxymethyl-1-[3-(5-methyl-furan-2-yl)-propyl]-pyrrolidine-3-carbonitrile trifluoroacetate salt]
14 | 887 | COC(=O)c1ccc(C#CCN2[C@@H](CC(C)(C)C)[C@](C#N)(c3ccc(Cl)cc3F)[C@@H](c3cccc(Cl)c3F)[C@@H]2CO)cc1F [Example 15, 4-{3-[(2S,3R,4S,5R)-4-(3-chloro-2-fluoro-phenyl)-3-(4-chloro-2-fluoro-phenyl)-3-cyano-2-(2,2-dimethyl-propyl)-5-hydroxymethyl-pyrrolidin-1-yl]-prop-1-ynyl}-2-fluoro-benzoic acid methyl ester]
15 | 489 | CC(C)(C)C[C@@H]1N(CCCC2CCOCC2)[C@@H](CO)[C@H](c2cccc(Cl)c2F)[C@@]1(C#N)c1ccc(Cl)cc1F [Example 16, (2S,3R,4S,5R)-4-(3-chloro-2-fluoro-phenyl)-3-(4-chloro-2-fluoro-phenyl)-2-(2,2-dimethyl-propyl)-5-hydroxymethyl-1-[3-(tetrahydro-pyran-4-yl)-propyl]-pyrrolidine-3-carbonitrile]
16 | 242 | (1S,2S)-2-[(2S,3R,4S,5R)-4-(3-chloro-2-fluoro-phenyl)-3-(4-chloro-2-fluoro-phenyl)-3-cyano-2-(2,2-dimethyl-propyl)-5-hydroxymethyl-pyrrolidin-1-ylmethyl]-cyclopropanecarboxylic acid [Example 10b]
17 | 215 | CC(C)(C)C[C@@H]1N(CCCc2cn(C(c3ccccc3)(c3ccccc3)c3ccccc3)cn2)[C@@H](CO)[C@H](c2cccc(Cl)c2F)[C@@]1(C#N)c1ccc(Cl)cc1F [Example 17, (2S,3R,4S,5R)-4-(3-chloro-2-fluoro-phenyl)-3-(4-chloro-2-fluoro-phenyl)-2-(2,2-dimethyl-propyl)-5-hydroxymethyl-1-[3-(1-trityl-1H-imidazol-4-yl)-propyl]-pyrrolidine-3-carbonitrile]
18 | 182 | CC(C)(C)C[C@@H]1N[C@@H](CO)[C@H](c2cccc(Cl)c2F)[C@@]1(C#N)c1ccc(Cl)cc1F [Example 7, (2S,3R,4S,5R)-4-(3-chloro-2-fluoro-phenyl)-3-(4-chloro-2-fluoro-phenyl)-2-(2,2-dimethyl-propyl)-5-hydroxymethyl-pyrrolidine-3-carbonitrile]
19 | 87 | CC(C)(C)C[C@@H]1N(C[C@@H]2C[C@H]2C(=O)O)[C@@H](CO)[C@H](c2cccc(Cl)c2F)[C@@]1(C#N)c1ccc(Cl)cc1F [Example 10a, (1R,2R)-2-[(2S,3R,4S,5R)-4-(3-chloro-2-fluoro-phenyl)-3-(4-chloro-2-fluoro-phenyl)-3-cyano-2-(2,2-dimethyl-propyl)-5-hydroxymethyl-pyrrolidin-1-ylmethyl]-cyclopropanecarboxylic acid]
